Measured values reported in the supplement of paper PMC4862054.

The compounds below were run on HCC1143 (assay: normalised response (% of control), CellTiter-Glo; higher = more viable cells (100 = DMSO, 0 = benzethonium chloride kill control)). Details: incubation time: 72 h.
How it was run: (§1)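 Breast cancer cell lines (20 µl suspension) were seeded into 384-well plates holding compound at 5 concentrations in 10-fold steps over a compound-specific 10,000-fold range, then incubated 72 h. CellTox Green fluorescence (485/520 nm) was read first, then CellTiter-Glo luminescence after 10 min at room temperature. Each plate was normalised to 0.1 % DMSO (100) and a positive kill control (0). Each value is the normalised signal at a single concentration of the series.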

Compound | normalised response [%]
CNC(=O)c1cccc(-c2ccc3c(N4CCOC[C@@H]4C)nc(N4CCOC[C@@H]4C)nc3n2)c1 [AZD2014] (10 nM) | 99.8
CN(C)c1nc(N(C)C)nc(N(C)C)n1 [Altretamine] (10 nM) | 105
O=C(/C=C/c1cccc(S(=O)(=O)Nc2ccccc2)c1)NO [Belinostat] (10 nM) | 99.2
Nc1cc(C(F)(F)F)c(-c2cc(N3CCOCC3)nc(N3CCOCC3)n2)cn1 [Buparlisib] (1 nM) | 92.6
Nc1cc(C(F)(F)F)c(-c2cc(N3CCOCC3)nc(N3CCOCC3)n2)cn1 [Buparlisib] (10 nM) | 97.2
O=P1(N(CCCl)CCCl)NCCCO1 (centres undefined) [Cyclophosphamide] (40 nM) | 105
CNC(=O)c1ccc(N2C(=S)N(c3ccc(C#N)c(C(F)(F)F)c3)C(=O)C2(C)C)cc1F [Enzalutamide] (1 nM) | 98.5
CNC(=O)c1ccc(N2C(=S)N(c3ccc(C#N)c(C(F)(F)F)c3)C(=O)C2(C)C)cc1F [Enzalutamide] (10 nM) | 103
C=C1C[C@@H]2[C@H](CC[C@]3(C)C(=O)CC[C@@H]23)[C@@]2(C)C=CC(=O)C=C12 [Exemestane] (10 nM) | 99.7
Cc1cc(Nc2cc(CN3CCOCC3)c3nc(C)c(Cc4ccc(Cl)cc4F)n3n2)n[nH]1 [Gandotinib] (10 nM) | 102
O=C(Nc1ccncc1)C(=O)c1cn(Cc2ccc(Cl)cc2)c2ccccc12 [Indibulin] (10 nM) | 100
Cc1ccc(NC(=O)c2ccc(CN3CCN(C)CC3)cc2)cc1Nc1nc(-c2cccnc2)cs1 [Masitinib] (10 nM) | 98.4
Cc1[nH]c2ccccc2c1CCNCc1ccc(/C=C/C(=O)NO)cc1 [Panobinostat] (1 nM) | 104
COCC1(CO)C(=O)C2CCN1CC2 (centres undefined) [Prima-1 Met] (10 nM) | 103

These compounds were tested on BT-474 in the same assay as above. Details: incubation time: 72 h.
How it was run: as §1

Compound | normalised response [%]
CCn1c(-c2nonc2N)nc2cnc(Oc3cccc(NC(=O)c4ccc(OCCN5CCOCC5)cc4)c3)cc21 (1 nM) | 95.1
CCn1c(-c2nonc2N)nc2cnc(Oc3cccc(NC(=O)c4ccc(OCCN5CCOCC5)cc4)c3)cc21 (10 nM) | 93.3
N#Cc1ccc(COC[C@H]2O[C@@H](n3c(NCc4ccc(Cl)c(Cl)c4)nc4c(N)ncnc43)[C@H](O)[C@@H]2O)cc1 (10 nM) | 107
COc1cc(O)c2c(c1)/C=C/C[C@H](O)[C@H](O)C(=O)/C=C\C[C@H](C)OC2=O [(5Z)-7-Oxozeaenol] (1 nM) | 97.9
COc1cc(O)c2c(c1)/C=C/C[C@H](O)[C@H](O)C(=O)/C=C\C[C@H](C)OC2=O [(5Z)-7-Oxozeaenol] (10 nM) | 106
COc1cc(OC2CCN(C)CC2)ccc1Nc1ncc2c(n1)n(C1CCCC1)c(=O)n2C [AZ 3146] (10 nM) | 107
CNC(=O)c1cccc(-c2ccc3c(N4CCOC[C@@H]4C)nc(N4CCOC[C@@H]4C)nc3n2)c1 [AZD2014] (1 nM) | 97.5
CNC(=O)c1cccc(-c2ccc3c(N4CCOC[C@@H]4C)nc(N4CCOC[C@@H]4C)nc3n2)c1 [AZD2014] (10 nM) | 99.5
CN(C)c1nc(N(C)C)nc(N(C)C)n1 [Altretamine] (10 nM) | 101
O=C(/C=C/c1cccc(S(=O)(=O)Nc2ccccc2)c1)NO [Belinostat] (10 nM) | 98.2
Nc1cc(C(F)(F)F)c(-c2cc(N3CCOCC3)nc(N3CCOCC3)n2)cn1 [Buparlisib] (1 nM) | 98.8
Nc1cc(C(F)(F)F)c(-c2cc(N3CCOCC3)nc(N3CCOCC3)n2)cn1 [Buparlisib] (10 nM) | 97.3
O=P1(N(CCCl)CCCl)NCCCO1 (centres undefined) [Cyclophosphamide] (40 nM) | 100
CNC(=O)c1ccc(N2C(=S)N(c3ccc(C#N)c(C(F)(F)F)c3)C(=O)C2(C)C)cc1F [Enzalutamide] (1 nM) | 97.4
CNC(=O)c1ccc(N2C(=S)N(c3ccc(C#N)c(C(F)(F)F)c3)C(=O)C2(C)C)cc1F [Enzalutamide] (10 nM) | 103
C=C1C[C@@H]2[C@H](CC[C@]3(C)C(=O)CC[C@@H]23)[C@@]2(C)C=CC(=O)C=C12 [Exemestane] (10 nM) | 21
Cc1cc(Nc2cc(CN3CCOCC3)c3nc(C)c(Cc4ccc(Cl)cc4F)n3n2)n[nH]1 [Gandotinib] (10 nM) | 106
O=C(Nc1ccncc1)C(=O)c1cn(Cc2ccc(Cl)cc2)c2ccccc12 [Indibulin] (10 nM) | 112
Cc1ccc(NC(=O)c2ccc(CN3CCN(C)CC3)cc2)cc1Nc1nc(-c2cccnc2)cs1 [Masitinib] (10 nM) | 102
Cc1[nH]c2ccccc2c1CCNCc1ccc(/C=C/C(=O)NO)cc1 [Panobinostat] (1 nM) | 103
COCC1(CO)C(=O)C2CCN1CC2 (centres undefined) [Prima-1 Met] (10 nM) | 103

These compounds were tested on MDA-MB-436 in the same assay as above. Details: incubation time: 72 h.
How it was run: as §1

Compound | normalised response [%]
CCn1c(-c2nonc2N)nc2cnc(Oc3cccc(NC(=O)c4ccc(OCCN5CCOCC5)cc4)c3)cc21 (1 nM) | 104
CCn1c(-c2nonc2N)nc2cnc(Oc3cccc(NC(=O)c4ccc(OCCN5CCOCC5)cc4)c3)cc21 (10 nM) | 95
N#Cc1ccc(COC[C@H]2O[C@@H](n3c(NCc4ccc(Cl)c(Cl)c4)nc4c(N)ncnc43)[C@H](O)[C@@H]2O)cc1 (10 nM) | 108
COc1cc(O)c2c(c1)/C=C/C[C@H](O)[C@H](O)C(=O)/C=C\C[C@H](C)OC2=O [(5Z)-7-Oxozeaenol] (1 nM) | 98
COc1cc(O)c2c(c1)/C=C/C[C@H](O)[C@H](O)C(=O)/C=C\C[C@H](C)OC2=O [(5Z)-7-Oxozeaenol] (10 nM) | 99
COc1cc(OC2CCN(C)CC2)ccc1Nc1ncc2c(n1)n(C1CCCC1)c(=O)n2C [AZ 3146] (10 nM) | 98.2
CNC(=O)c1cccc(-c2ccc3c(N4CCOC[C@@H]4C)nc(N4CCOC[C@@H]4C)nc3n2)c1 [AZD2014] (1 nM) | 89.7
CNC(=O)c1cccc(-c2ccc3c(N4CCOC[C@@H]4C)nc(N4CCOC[C@@H]4C)nc3n2)c1 [AZD2014] (10 nM) | 98.5
CN(C)c1nc(N(C)C)nc(N(C)C)n1 [Altretamine] (10 nM) | 96.5
O=C(/C=C/c1cccc(S(=O)(=O)Nc2ccccc2)c1)NO [Belinostat] (10 nM) | 91
Nc1cc(C(F)(F)F)c(-c2cc(N3CCOCC3)nc(N3CCOCC3)n2)cn1 [Buparlisib] (1 nM) | 98.9
Nc1cc(C(F)(F)F)c(-c2cc(N3CCOCC3)nc(N3CCOCC3)n2)cn1 [Buparlisib] (10 nM) | 101
O=P1(N(CCCl)CCCl)NCCCO1 (centres undefined) [Cyclophosphamide] (40 nM) | 99.1
CNC(=O)c1ccc(N2C(=S)N(c3ccc(C#N)c(C(F)(F)F)c3)C(=O)C2(C)C)cc1F [Enzalutamide] (1 nM) | 102
